# Assay results: patent US20130029942A1, “COMPOUNDS AND THERAPEUTICAL USES THEREOF” (Myrexis, Inc., priority 2003, published 2013)
# Read-outs that look alike come from different tables or passages of the source.
# Tested on: T-47D cells
# Test: Caspase cascade activation / induction of apoptosis in T-47D cells (fluorogenic N-(Ac-DEVD)-N'-ethoxycarbonyl-R110 substrate)
# Assay type: cell-based, human
# Settings: for EC50: Homo sapiens, T47D
# [1] = T-47D, 48 hr, benzohydrazide table, read-out: T-47D (48 hr) EC50
# [2] = T-47D, 48 hr, benzohydrazide table
# [3] = T-47D, 24 hr, read-out: T-47D (24 hr) EC50
# [4] = T-47D, 48 hr, read-out: T-47D (48 hr) EC50
Compound,EC50 [3],EC50 [4],also measured
CSc1nc(N(C)NC(=O)c2ccc(Cl)cc2)c2ccccc2n1,–,–,EC50 [1]: 138 nM; T-47D (48 hr) Ratio [2]: 14.4
CSc1nc(N(C)NC(=O)c2cccs2)c2ccccc2n1,–,–,EC50 [1]: 737 nM; T-47D (48 hr) Ratio [2]: 10.1
CSc1nc(N(C)NC(=O)c2ccccc2)c2ccccc2n1,–,–,EC50 [1]: 149 nM; T-47D (48 hr) Ratio [2]: 14.7
CN(NC(=O)c1ccccc1F)c1nc(C(F)(F)F)nc2ccccc12,–,–,EC50 [1]: 184 nM; T-47D (48 hr) Ratio [2]: 13.7
CSc1nc(N(C)NC(=O)c2ccc(F)cc2)c2ccccc2n1,–,–,EC50 [1]: 290 nM; T-47D (48 hr) Ratio [2]: 13.8
CSc1nc(N(C)NC(=O)c2cccc(C)c2)c2ccccc2n1,–,–,EC50 [1]: 46 nM; T-47D (48 hr) Ratio [2]: 12.7
COc1ccc(C(=O)NN(C)c2nc(C(F)(F)F)nc3ccccc23)cc1,–,–,EC50 [1]: 39 nM; T-47D (48 hr) Ratio [2]: 13.1
"CN(c1ccc(Cl)cc1)c1nc(Cl)nc2ccccc12 [Example 3, (2-Chloro-quinazolin-4-yl)-(4-chloro-phenyl)-methyl-amine]",79 nM,–,–
"CN(c1ccc([N+](=O)[O-])cc1)c1nc(Cl)nc2ccccc12 [Example 4, (2-Chloro-quinazolin-4-yl)-(4-nitro-phenyl)-methyl-amine]",872 nM,–,–
"CN(c1ccc(OC(F)(F)F)cc1)c1nc(Cl)nc2ccccc12 [Example 5, (2-Chloro-quinazolin-4-yl)-(4-trifluoromethoxy-phenyl)-methyl-amine]",24 nM,–,–
"Cc1ccc(Nc2nc(Cl)nc3ccccc23)cc1 [Example 8, (2-Chloro-quinazolin-4-yl)-(4-methyl-phenyl)-amine]",> 10000 nM,–,–
"COc1ccc2c(ccn2-c2nc(Cl)nc3ccccc23)c1 [Example 9, 2-Chloro-4-(5-methoxyindol-1-yl)quinazoline]",–,> 10000 nM,–
"COc1ccc(N(C)c2nc(NO)nc3ccccc23)cc1 [Example 10, N^2-Hydroxyl-N^4-(4-methoxy-phenyl)-N^4-methyl-quinazoline-2,4-diamine]",–,48 nM,–
"COc1ccc(N(C)c2nc(NCCO)nc3ccccc23)cc1 [Example 11, N^2-(2-Hydroxylethyl)-N^4-(4-methoxy-phenyl)-N^4-methyl-quinazoline-2,4-diamine]",8 nM,10 nM,–
"COc1ccc(N(C)c2nc(N)nc3ccccc23)cc1 [Example 12, N^4-(4-Methoxy-phenyl)-methyl-quinazoline-2,4-diamine]",8 nM,9 nM,"EC50 (Table III, time not given, repeats 24 hr or 48 hr T-47D values of Table I, read-out: Caspase activation (EC50 nM)): 8 nM"
"COc1ccc(N(C)c2nc(NCCN3CCOCC3)nc3ccccc23)cc1 [Example 14, N^4-(4-Methoxy-phenyl)-N^4-methyl-N^2-(2-morpholin-4-yl-ethyl)-quinazoline-2,4-diamine]",1340 nM,1330 nM,–
"COc1ccc(N(C)c2nc(N3CCOCC3)nc3ccccc23)cc1 [Example 15, (4-Methoxy-phenyl)-methyl-(2-morpholin-4-yl-quinazolin-4-yl)-amine]",56 nM,89 nM,–
"CC(C)=CCC/C(C)=C/CNc1nc(N(C)c2ccc(C)cc2)c2ccccc2n1 [Example 16, N^2-(3,7-Dimethyl-octa-2,6-dienyl)-N^4-(4-methyl-phenyl)-N^4-methyl-quinazoline-2,4-diamine]",296 nM,–,–
"COc1ccc(N(C)c2nc(N)nc3[nH]cnc23)cc1 [Example 17, N^6-(4-Methoxy-phenyl)-N^6-methyl-9H-purine-2,6-diamine]",7940 nM,–,–
"CN(c1ccccc1)c1nc(N(C)c2ccccc2)c2ccccc2n1 [Example 18, N^2,N^4-Dimethyl-N^2,N^4-diphenyl-quinazoline-2,4-diamine]",> 10000 nM,> 10000 nM,–
"CN(c1ccc(Cl)cc1)c1nc(N(C)c2ccc(Cl)cc2)c2ccccc2n1 [Example 19, N^2,N^4-Bis(4-chloro-phenyl)-N^2,N^4-dimethyl-quinazoline-2,4-diamine]",> 10000 nM,> 10000 nM,–
"COc1ccc(Nc2nc(Cl)nc3cc(OC)c(OC)cc23)cc1 [Example 21, (2-Chloro-6,7-dimethoxyquinazolin-4-yl)-(4-methoxy-phenyl)-amine]",> 10000 nM,> 10000 nM,–
"COc1cc2nc(Cl)nc(N(C)c3ccc(C)cc3)c2cc1OC [Example 22, (2-Chloro-6,7-dimethoxyquinazolin-4-yl)-(4-methyl-phenyl)-methyl-amine]",> 10000 nM,> 10000 nM,–
"COc1ccc(N(C)c2nc(NCCN3CCOCC3)nc3cc(OC)c(OC)cc23)cc1 [Example 23, 6,7-Dimethoxy-N^4-(4-methoxy-phenyl)-N^4-methyl-N^2-(2-morpholin-4-yl-ethyl)-quinazoline-2,4-diamine]",> 10000 nM,> 10000 nM,–
"COc1ccc(N(C)c2nc(NC/C=C(\C)CCC=C(C)C)nc3cc(OC)c(OC)cc23)cc1 [Example 24, 6,7-Dimethoxy-N^2-(3,7-dimethyl-octa-2,6-dienyl)-N^4-(4-methoxy-phenyl)-N^4-methyl-quinazoline-2,4-diamine]",> 10000 nM,9460 nM,–

Compound,EC50 [3],EC50 [4],also measured
"COc1ccc(CN(C)c2nc(Cl)nc3ccccc23)cc1 [Example 26, (2-Chloro-quinazolin-4-yl)-(4-methoxy-benzyl)-methyl-amine]",–,178 nM,–
"Clc1nc(Nc2ccncc2)c2ccccc2n1 [Example 27, (2-Chloro-quinazolin-4-yl)-pyridin-4-yl-amine]",–,> 10000 nM,–
"COc1ccc(Nc2nc(Cl)nc3ccccc23)cn1 [Example 28, (2-Chloro-quinazolin-4-yl)-(6-methoxy-pyridin-3-yl)-amine]",> 10000 nM,> 10000 nM,–
"COc1cccc(Nc2nc(Cl)nc3ccccc23)c1OC [Example 29, (2-Chloro-quinazolin-4-yl)-(2,3-dimethoxy-phenyl)-amine]",–,> 10000 nM,–
"COc1ccc(Nc2nc(Cl)nc3ccccc23)c(OC)c1 [Example 30, (2-Chloro-quinazolin-4-yl)-(2,4-dimethoxy-phenyl)-amine]",–,> 10000 nM,–
"COc1cccc(Nc2nc(Cl)nc3ccccc23)c1 [Example 32, (2-Chloro-quinazolin-4-yl)-(3-methoxy-phenyl)-amine]",–,> 10000 nM,–
"COc1ccccc1Nc1nc(Cl)nc2ccccc12 [Example 33, (2-Chloro-quinazolin-4-yl)-(2-methoxy-phenyl)-amine]",–,> 10000 nM,–
"COc1ccc(N(c2nc(Cl)nc3ccccc23)C(C)C)cc1 [Example 37, (2-Chloro-quinazolin-4-yl)-isopropyl-(4-methoxy-phenyl)-amine]",2690 nM,–,–
"COc1ccc(N(c2nc(Cl)nc3ccccc23)C2CCCCC2)cc1 [Example 38, (2-Chloro-quinazolin-4-yl)-cyclohexyl-(4-methoxy-phenyl)-amine]",2930 nM,–,–
"COc1cccc(N(C)c2nc(Cl)nc3ccccc23)c1OC [Example 39, (2-Chloro-quinazolin-4-yl)-(2,3-dimethoxy-phenyl)-methyl-amine]",693 nM,–,–
"CCN(c1ccc(OC)cc1)c1nc(Cl)nc2ccccc12 [Example 40, (2-Chloro-quinazolin-4-yl)-ethyl-(4-methoxy-phenyl)-amine]",–,47 nM,–
"COc1ccc(N(c2nc(Cl)nc3ccccc23)C2CCCC2)cc1 [Example 45, (2-Chloro-quinazolin-4-yl)-cyclopentyl-(4-methoxy-phenyl)-amine]",–,> 10000 nM,–
"COc1ccc(N(C)c2nc(NCCc3c[nH]cn3)nc3ccccc23)cc1 [Example 46, N^2-[2-(1H-Imidazol-4-yl)-ethyl]-N^4-(4-methoxy-phenyl)-N^4-methyl-quinazoline-2,4-diamine]",2180 nM,2270 nM,–
"COc1ccc(N(C)c2nc(NCCCN(C)C)nc3ccccc23)cc1 [Example 47, N^2-(3-Dimethylamino-propyl)-N^4-(4-methoxy-phenyl)-N^4-methyl-quinazoline-2,4-diamine]",–,187 nM,–
"COc1ccc(N(C)c2nc(NCCO)nc3ccccc23)cn1 [Example 48, N^2-(2-Hydroxyethyl)-N^4-(6-methoxypyridin-3-yl)-N^4-methyl-quinazoline-2,4-diamine]",–,137 nM,–
"COc1ccc(N(C)c2nc(N)nc3ccccc23)cn1 [Example 49, N^4-(6-methoxypyridin-3-yl)-N^4-methyl-quinazoline-2,4-diamine]",29 nM,22 nM,–
"COc1ccc(N(C)c2nc(NCCO)nc3cc(OC)c(OC)cc23)cc1 [Example 50, N^2-(2-Hydroxyethyl)-N^4-(4-methoxy-phenyl)-N^4-methyl-6,7-dimethoxyquinazoline-2,4-diamine]",–,> 10000 nM,–
"COc1ccc(N(C)c2nc(Cl)nc3[nH]cnc23)cc1 [Example 51, (2-Chloro-9H-purin-6-yl)-(4-methoxy-phenyl)-methyl-amine]",–,> 10000 nM,–
"COC(=O)c1ccc(N(C)c2nc(Cl)nc3ccccc23)cc1 [Example 52, (2-Chloro-quinazolin-4-yl)-(4-methylcarboxyphenyl)-methyl-amine]",–,6 nM,–
"CN(c1ccc(O)cc1)c1nc(Cl)nc2ccccc12 [Example 54, (2-Chloro-quinazolin-4-yl)-(4-hydroxyphenyl)-methylamine]",–,46 nM,–
"COc1ccc(N(C)c2nc(CF)nc3ccccc23)cc1 [Example 55, (2-Fluoromethyl-quinazolin-4-yl)-(4-methoxy-phenyl)-methyl-amine]",–,1 nM,–
"COc1ccc(N(C)c2nc(Cl)nc3ccc(C)cc23)cc1 [Example 56, (2-Chloro-6-methyl-quinazolin-4-yl)-(4-methoxy-phenyl)-methyl-amine]",–,5 nM,–
"COc1ccc(N(C)c2nc(Cl)nc3cc(C)ccc23)cc1 [Example 57, (2-Chloro-7-methyl-quinazolin-4-yl)-(4-methoxy-phenyl)-methyl-amine]",–,432 nM,–
"COc1ccc(N(C)c2nc(Cl)nc3cccc(C)c23)cc1 [Example 58, (2-Chloro-5-methyl-quinazolin-4-yl)-(4-methoxy-phenyl)-methyl-amine]",–,1 nM,–
"COc1ccc(N(C)c2nc(Cl)nc3c(C)cccc23)cc1 [Example 59, (2-Chloro-8-methyl-quinazolin-4-yl)-(4-methoxy-phenyl)-methyl-amine]",–,11 nM,–
